Source: the OligoGym collection
Where “and” joins values, the source holds several entries; their conditions need not be identical. Identical values can stand only once. After the bases stand the sugars from the 5' end (letter, count) and the backbone: PS all phosphorothioate, else s phosphorothioate and o phosphodiester by linkage. Methylation of C is not given here. e = 2'-O-(2-methoxyethyl) (MOE); k = constrained ethyl (cEt); d = 2'-deoxy (DNA)

Target: IRF4
Details: ASO

## GGCACATGAGAAATCA (sugars k3 d10 k3, PS)
SK-MEL-28, 4 µM
  target mRNA inhibition: 33%

## GGCAGTTGTGCCGTCT (sugars k3 d10 k3, PS)
MM.1R, 1 µM
  target mRNA inhibition: -17%

## GGCATACAGTGTGATT (sugars k3 d10 k3, PS)
SK-MEL-28, 4 µM
  target mRNA inhibition: 25%

## GGCCCTGTCAAACTAT (sugars k3 d10 k3, PS)
SK-MEL-28, 4 µM
  target mRNA inhibition: 40%

## GGCCTCCCCAAGGCTA (sugars k3 d10 k3, PS)
SK-MEL-28, 4 µM
  target mRNA inhibition: 18%

## GGCCTCTGAGCAGAAC (sugars k3 d10 k3, PS)
SK-MEL-28, 4 µM
  target mRNA inhibition: 27%

## GGCCTGAAGCTTAGTT (sugars k3 d10 k3, PS)
MM.1R, 1 µM
  target mRNA inhibition: -5% and 6%

## GGCGAGTGGCGGGTAG (sugars k3 d10 k3, PS)
SK-MEL-28, 4 µM
  target mRNA inhibition: 8%

## GGCTAAACCTGGCACC (sugars k3 d10 k3, PS)
SK-MEL-28, 4 µM
  target mRNA inhibition: 40%

## GGCTACAGGCACGGCT (sugars k3 d10 k3, PS)
SK-MEL-28, 4 µM
  target mRNA inhibition: 42%

## GGCTAGCAGAGGTTCT (sugars k3 d10 k3, PS)
SK-MEL-28, 4 µM
  target mRNA inhibition: 51%

## GGCTAGCTGTATTTAT (sugars k3 d10 k3, PS)
SK-MEL-28, 4 µM
  target mRNA inhibition: 37%

## GGCTCCCTCAGGAACA (sugars k3 d10 k3, PS)
SK-MEL-28, 4 µM
  target mRNA inhibition: 19%

## GGCTCCTACATGTTTG (sugars k3 d10 k3, PS)
SK-MEL-28, 4 µM
  target mRNA inhibition: -46%

## GGCTCTTGATGTGAAC (sugars k3 d10 k3, PS)
MM.1R, 1 µM
  target mRNA inhibition: -12%

## GGGAATCCCTTATTAG (sugars k3 d10 k3, PS)
MM.1R, 1 µM
  target mRNA inhibition: 0%

## GGGAGAGCGGAGGCGG (sugars k3 d10 k3, PS)
SK-MEL-28, 4 µM
  target mRNA inhibition: 22%

## GGGATTCCGCGCGCAG (sugars k3 d10 k3, PS)
SK-MEL-28, 4 µM
  target mRNA inhibition: 14%

## GGGCAACTTTAACCAT (sugars k3 d10 k3, PS)
SK-MEL-28, 4 µM
  target mRNA inhibition: 8%

## GGGCATGTGACTGGAG (sugars k3 d10 k3, PS)
SK-MEL-28, 4 µM
  target mRNA inhibition: 50%

## GGGCCCCGTGAAACAG (sugars k3 d10 k3, PS)
SK-MEL-28, 4 µM
  target mRNA inhibition: 33%

## GGGTAGAGCAGCTCCC (sugars k3 d10 k3, PS)
MM.1R, 1 µM
  target mRNA inhibition: -16%

## GGGTGCTCTTACAGCC (sugars k3 d10 k3, PS)
MM.1R, 1 µM
  target mRNA inhibition: -2%

## GGGTGGCATCATGTAG (sugars k3 d10 k3, PS)
MM.1R, 1 µM
  target mRNA inhibition: 27%

## GGGTTAAATATTCTTC (sugars k3 d10 k3, PS)
SK-MEL-28, 4 µM
  target mRNA inhibition: 52%

## GGTAAGATCTCCATGG (sugars k3 d10 k3, PS)
SK-MEL-28, 4 µM
  target mRNA inhibition: 45%

## GGTCACTTGGTTCTCT (sugars k3 d10 k3, PS)
SK-MEL-28, 4 µM
  target mRNA inhibition: 79%

## GGTCAGAATCTTGAAA (sugars k3 d10 k3, PS)
SK-MEL-28, 4 µM
  target mRNA inhibition: 9%

## GGTCTGGAAACTCCTC (sugars k3 d10 k3, PS)
MM.1R, 0.074 µM
  target mRNA inhibition: 13%
MM.1R, 0.222 µM
  target mRNA inhibition: 14%
MM.1R, 0.666 µM
  target mRNA inhibition: 12%
MM.1R, 2 µM
  target mRNA inhibition: 17%
SK-MEL-28, 0.185 µM
  target mRNA inhibition: 1%
SK-MEL-28, 4 µM
  target mRNA inhibition: 52%
SK-MEL-28, 5 µM
  target mRNA inhibition: 63%
SK-MEL-28, 15 µM
  target mRNA inhibition: 86%

## GGTCTGGAAACTCCTC (sugars k4 d8 k4, PS)
SK-MEL-28, 4 µM
  target mRNA inhibition: 31%

## GGTGCTCCTAAATCAC (sugars k3 d10 k3, PS)
MM.1R, 1 µM
  target mRNA inhibition: -1%

## GGTTGGCTGGTCTTTG (sugars k3 d10 k3, PS)
MM.1R, 0.0625 µM
  target mRNA inhibition: -2% and 15%
MM.1R, 0.25 µM
  target mRNA inhibition: 16% and 20%
MM.1R, 1 µM
  target mRNA inhibition: 49% and 35%
MM.1R, 4 µM
  target mRNA inhibition: 66% and 70%

## GGTTGGCTGGTCTTTG (sugars kkdddddddddkekek, PS)
MM.1R, 0.0625 µM
  target mRNA inhibition: 34%
MM.1R, 0.25 µM
  target mRNA inhibition: 44%
MM.1R, 1 µM
  target mRNA inhibition: 67% and 63%
MM.1R, 4 µM
  target mRNA inhibition: 82%

## GGTTTCAGTTGTAAAT (sugars k3 d10 k3, PS)
SK-MEL-28, 4 µM
  target mRNA inhibition: 58%

## GTAAAACATAACTTAC (sugars k3 d10 k3, PS)
SK-MEL-28, 4 µM
  target mRNA inhibition: 8%

## GTAAACTGAAAGACCC (sugars k3 d10 k3, PS)
SK-MEL-28, 4 µM
  target mRNA inhibition: 35%

## GTAAGGGCTGCTCATT (sugars k3 d10 k3, PS)
SK-MEL-28, 4 µM
  target mRNA inhibition: 52%

## GTAATCTTCTGGATTG (sugars k3 d10 k3, PS)
SK-MEL-28, 4 µM
  target mRNA inhibition: 29%

## GTAATTTTAAGGCCCT (sugars k3 d10 k3, PS)
SK-MEL-28, 4 µM
  target mRNA inhibition: 55%

## GTACGAGCACATGTCA (sugars k3 d10 k3, PS)
MM.1R, 1 µM
  target mRNA inhibition: 0%

## GTACTTGCCGCTGTCG (sugars k3 d10 k3, PS)
SK-MEL-28, 4 µM
  target mRNA inhibition: 27%

## GTAGACCACAGTGAAG (sugars k3 d10 k3, PS)
SK-MEL-28, 4 µM
  target mRNA inhibition: 29%

## GTAGAGGAGGAGGACT (sugars k3 d10 k3, PS)
SK-MEL-28, 4 µM
  target mRNA inhibition: 16%

## GTAGGACAGACAAAAA (sugars k3 d10 k3, PS)
SK-MEL-28, 4 µM
  target mRNA inhibition: 23%

## GTAGGAGTGTAACTGA (sugars k3 d10 k3, PS)
SK-MEL-28, 4 µM
  target mRNA inhibition: 41%

## GTAGTATGAGAAACGG (sugars e1 k2 d9 k2 e2, PS)
MM.1R, 1 µM
  target mRNA inhibition: 29%

## GTAGTATGAGAAACGG (sugars k2 d9 e3 k2, PS)
MM.1R, 1 µM
  target mRNA inhibition: 51%

## GTAGTATGAGAAACGG (sugars k3 d9 k3 e1, PS)
MM.1R, 1 µM
  target mRNA inhibition: 40%

## GTAGTATGAGAAACGG (sugars kkdddddddddekeke, PS)
MM.1R, 1 µM
  target mRNA inhibition: 35%

## GTAGTATGAGAAACGG (sugars kkdddddddddkdkdk, PS)
MM.1R, 1 µM
  target mRNA inhibition: 32%

## GTATACATCACTGCAG (sugars k3 d10 k3, PS)
SK-MEL-28, 4 µM
  target mRNA inhibition: 44%
